# Experiments:
# MDA-MB-468 cells [1] = test: Cell cycle analysis; format: cell-based, human; conditions: after 48 hours
# [2] = test system: PHGDH-independent cell lines (ZR-75-1, SK-MEL-2); test: Cytotoxicity (Cell Titer-Glo), other PHGDH-independent cell lines; format: cell-based, human
# Description: Knockdown of PHGDH is selectively toxic towards PHGDH-dependent cell lines, and minimally toxic towards PHGDH-independent cell lines. […] Cell count was determined by quantitating the amount of ATP present with CellTitreGlo® measurements 96 hours after dosage.
# Cells were seeded in white 96-well plates (Greiner) at a density of 2000 cells/well (MDA-MB-468, BT-20, MT-3) or 1000 cells/well (all other cell lines) and allowed to attach for 24 hours. Compounds were prepared in DMSO and dispensed using an HP D300 compound dispenser. Cell viability was assessed with Cell Titer-Glo (Promega) at four days following treatment and luminescence measured with a SpectraMax M5 Plate Reader (Molecular Devices). Luminescence was normalized to an untreated control in identical medium. For rescue experiments, RPMI was supplemented with 40 μM adenosine, uridine, guanosine, cytidine, deoxyadenosine, thymidine, deoxyguanosine, and deoxycytidine and the medium was replaced daily.
# [3] = test system: serine biosynthetic pathway; test: Labeled serine in brain after tail vein injection of 13C glucose; format: in vivo, mouse; conditions: 35 mg/kg
# Description: The mice were sacrificed at the indicated times, and the fraction of labeled serine in the brain was determined by LC-MS and normalized to the fraction of labeled lactate (FIG. 4J).
# Solubility = format: physicochemical
# [4] = test system: MDA-MB-231 orthotopic xenografts; test: MDA-MB-231 orthotopic xenografts; format: in vivo, mouse; conditions: 40 mg/kg daily, IP
# Description: Female NOD.CB17-Prkdc^scid/J mice, 6-8 weeks old, were obtained from Jackson Laboratories. All animals were provided with food ad libitum for the duration for the duration of the experiment. The animals were allocated randomly for induction with MDA-MB-231 or MDA-MB-468 tumors and tumor group was assigned blindly. 500,000 MDA-MB-231 or MDA-MB-468 cells were injected into the 4th mammary fat pad of each mouse. After 30 days, the tumors were palpable, and the mice were pooled by tumor type and divided randomly to two groups, which were assigned blindly to vehicle or NCT-503 treatment. […] Caliper measurements were obtained twice weekly and tumor volumes were calculated with the modified ellipsoid formula: volume=0.5×width^2×length.
# For quantitation of necrotic regions, fixed tumors were embedded and sections stained with hematoxylin and eosin. Slides were scanned with a Leica Aperio AT2 brightfield scanner. Tumor and necrotic cross-sectional regions were manually delineated and measured using Leica ImageScope software to calculate the percentage of necrosis.
# MDA-MB-468 cells [5] = test: Metabolite profiling and 13C labeling in MDA-MB-468 cells (LC-MS); format: cell-based, human
# Description: To track the effects of PHGDH inhibition on glycolysis and serine biosynthesis, MDA-MB-231 and MDA-MB-468 cells were fed universally labeled carbon-13 glucose and the intracellular ratio of labeled to unlabeled glucose was measured at the times indicated in FIG. 3E.
# Cells were evenly seeded at 400,000 cells per well of a 6-well plate and allowed to attach for 24 hours. Prior to all labeling experiments, cells were pretreated with 10 μM compound or an equivalent volume of DMSO in RPMI for 1 hour. For steady-state metabolite concentrations, cells were washed with PBS prior to pretreatment and treatment in RPMI lacking serine and glycine. For labeling experiments, U-^13C-glucose, U-^13C-serine, or U-^13C-glycine replaced the corresponding unlabeled RPMI component. Cells were washed in 4° C. 0.9% (w/v) NaCl in LCMS-grade water and extracted in 1 mL/well of 80:20 (v/v) methanol:water with 0.01 ng/mL Val-d8 and Phe-d8 as internal extraction standards. The extraction solvent was dried under nitrogen gas and metabolite samples were stored at −80° C. until analysis. Triplicate identically seeded wells were trypsinzed and analyzed with a Multisizer Coulter Counter (Beckman Coulter) to obtain cell counts and total cell volumes for normalization.
# Dried metabolites were resuspended in 100 μL water, centrifuged at 13,000×g at 4° C. for 10 minutes, and the supernatant recovered for analysis. Chromatographic separation was achieved by injecting 1 pi of sample on a SeQuant ZIC-pHILIC Polymeric column (2.1 3 150 mm […], EMD Millipore). Flow rate was set to 0.1 ml per minute, column compartment was set to 25° C., and autosampler sample tray was set to 4° C. Mobile Phase A consisted of 20 mM ammonium carbonate, 0.1% ammonium hydroxide. Mobile Phase B was 100% acetonitrile. The mobile phase gradient (% B) was as follows: 0 min 80%, 30 min 20%, 31 min 80%, 42 min 80%. All mobile phase was introduced into the ionization source set with the following parameters: sheath gas=40, auxiliary gas=15, sweep gas=5, spray voltage=−3.1 kV or +3.0 kV, capillary temperature=275° C., S-lens RF level=40, probe temperature=350° C. Metabolites were monitored using a polarity-switching full-scan method and identified by accurate mass (±20 ppm) and retention time within 15 seconds of a previously run pure standard. Metabolite peaks were identified and integrated with Xcalibur v.2.2 software (Thermo Fisher Scientific) and normalized to internal standard and to total cell volume, m/z ratios for stable isotopically labeled metabolites were obtained from IsoMETLIN (See, e.g., Cho, K. et al. “isoMETLIN: a database for isotope-based metabolomics.” Anal Chem 86, 9358-9361 (2014)) and corrected for natural abundance.
# MDA-MB-468 tumors = test: U-13C-glucose infusion in mice bearing MDA-MB-468 tumors (target engagement); format: in vivo, mouse
# Description: Thus, the PHGDH inhibitors described herein engage PHGDH in tumors and recapitulate the selective toxicity of PHGDH knockdown in vivo.
# Chronic catheters were surgically implanted into the jugular veins of normal or tumor bearing animals 3-4 days prior to infusions. Animals were fasted for 6 hours (morning fast) and infusions were performed in free-moving, conscious animals at 1:00 pm for all studies to minimize metabolic changes associated with circadian rhythm. […] Animals were terminally anesthetized with sodium pentobarbital and all tissues were fully harvested in less than 5 minutes to preserve the metabolic state. Tumors and adjacent lung tissue were carefully dissected and rapidly frozen using a BioSqueezer (BioSpec Products) to ensure rapid quenching of metabolism throughout the tissue section. Tissues were stored at −80 C and extracted with 80:20 (v/v) methanol:water in the same manner as cells prior to LCMS analysis.
# C234S PHGDH = C234S PHGDH (Homo sapiens (Human), UniProt O43175, C234S); test: Inhibition of C234S mutant PHGDH in vitro; format: biochemical; conditions: C234S vs wild type PHGDH
# C234S PHGDH, sequence (O43175 whole entry C234S): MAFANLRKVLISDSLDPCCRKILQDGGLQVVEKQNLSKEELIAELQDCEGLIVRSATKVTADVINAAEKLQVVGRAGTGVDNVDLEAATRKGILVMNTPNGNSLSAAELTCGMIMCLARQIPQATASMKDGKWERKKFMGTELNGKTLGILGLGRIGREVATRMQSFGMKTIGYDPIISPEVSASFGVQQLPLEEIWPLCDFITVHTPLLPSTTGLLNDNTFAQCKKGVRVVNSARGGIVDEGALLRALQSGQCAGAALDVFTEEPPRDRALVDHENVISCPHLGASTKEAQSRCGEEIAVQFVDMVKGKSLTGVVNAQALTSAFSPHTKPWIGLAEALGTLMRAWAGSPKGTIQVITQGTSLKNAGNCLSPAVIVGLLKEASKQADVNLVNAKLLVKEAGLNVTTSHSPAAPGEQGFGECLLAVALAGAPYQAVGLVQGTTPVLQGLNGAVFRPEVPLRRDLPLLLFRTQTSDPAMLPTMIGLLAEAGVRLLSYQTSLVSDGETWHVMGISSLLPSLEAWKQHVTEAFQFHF
smiles,measurement,setting,value
"Cc1cc(C)nc(NC(=S)N2CCN(Cc3ccc(C(F)(F)F)cc3)CC2)c1 [Compound 267, N-(4,6-dimethylpyridin-2-yl)-4-(4-(trifluoromethyl)benzyl)piperazine-1-carbothioamide]",cell cycle effect,MDA-MB-468 cells [1],G1/S arrest
same,toxicity,[2],no toxicity
same,incorporation of carbon-13 from glucose into serine in the brain,[3],block incorporation
same,aqueous solubility,Solubility,reasonable aqueous solubility
same,growth or weight of xenografts,[4],did not affect the growth or weight
same,intracellular glucose concentration,MDA-MB-468 cells [5],did not change
same,incorporation of 13C from exogenous U-13C-serine into AMP and dTMP,MDA-MB-468 cells [5]; treatment for 4 hours,decreased
same,reduction of labeled (glucose-derived) intracellular serine,MDA-MB-468 cells [5]; universally labeled carbon-13 glucose,> 75%
same,reversibility of inhibition of serine synthesis in cells,MDA-MB-468 cells [5]; washout,reversible
same,production of glucose-derived serine in tumors,MDA-MB-468 tumors,decreased production
same,reduction of potency of PHGDH inhibition by C234S mutation,C234S PHGDH,approximately 3 fold

# Source: US11225469B2, “Inhibitors of phosphoglycerate dehydrogenase (PHGDH) and uses thereof” (Whitehead Institute for Biomedical Research, priority 2015, dated 2022)
